This passage reports Kd results from ChEMBL document CHEMBL5729330, “Galactoside inhibitor of galectins” (2022).

Molecules are shown by their SMILES.

Sequence of Galectin-3 (P17931 whole entry): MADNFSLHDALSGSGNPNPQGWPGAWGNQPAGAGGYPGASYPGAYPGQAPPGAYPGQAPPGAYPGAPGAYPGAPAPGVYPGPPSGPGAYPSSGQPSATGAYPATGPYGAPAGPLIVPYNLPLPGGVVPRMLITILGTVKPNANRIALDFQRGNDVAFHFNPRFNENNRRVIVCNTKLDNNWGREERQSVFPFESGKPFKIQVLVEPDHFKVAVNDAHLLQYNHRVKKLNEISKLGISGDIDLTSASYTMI

The assay has as its target Galectin-3 (Homo sapiens, UniProt P17931). The assay can be described thus: Fluorescence Anisotropy Assay: The affinity of Example 1-71 for galectins were determined by a fluorescence anisotropy assay where the compound was used as an inhibitor of the interaction between galectin and a fluorescein tagged saccharide probe. In general terms: Fluorescence polarisation rises when a labelled molecule tumbles more slowly, as on binding a larger partner.
Consider `COC1[C@@H](Sc2cc(Cl)cnc2C(=O)N2CCC2)OC(CO)[C@H](O)[C@@H]1n1cc(-c2cc(F)c(Cl)c(F)c2)nn1` (some centres undefined), for which binding was characterised by a dissociation constant (Kd) of 16 nM. Regarding `CCOC1[C@@H](Sc2cc(Cl)cnc2C(=O)N2CCC2)OC(CO)[C@H](O)[C@@H]1n1cc(-c2cc(F)c(F)c(F)c2)nn1` (some centres undefined), the dissociation constant Kd – broadly, the equilibrium constant for the complex coming apart – turned out to be 21 nM. The result for `CCOC1[C@@H](Sc2cc(Cl)cnc2C(=O)N2CCC2)OC(CO)[C@H](O)[C@@H]1n1cc(-c2cc(F)c(Cl)c(F)c2)nn1` (some centres undefined) reads 11 nM; that for `COC1[C@@H](Sc2cc(Cl)cnc2C(=O)N2CCC2)OC(CO)[C@H](O)[C@@H]1n1cc(-c2cc(F)c(F)c(F)c2)nn1` (some centres undefined), 10 nM; that for `CCOC1[C@@H](Sc2cc(Br)cnc2C(=O)N2CCC2)OC(CO)[C@H](O)[C@@H]1n1cc(-c2ccc(Cl)c(F)c2)nn1` (some centres undefined), 8 nM. The result for `COC1[C@@H](Sc2cc(Cl)cnc2C(=O)N2CCC2)OC(CO)[C@H](O)[C@@H]1n1cc(-c2ccc(Cl)c(F)c2)nn1` (some centres undefined) reads 21 nM; that for `COC1[C@@H](Sc2cc(Br)cnc2C(=O)N2CCC2)OC(CO)[C@H](O)[C@@H]1n1cc(-c2cc(F)c(F)c(F)c2)nn1` (some centres undefined), 6 nM.

Consider `COC1[C@@H](Sc2cc(Br)cnc2C(=O)N2CCC2)OC(CO)[C@H](O)[C@@H]1n1cc(-c2ccc(Cl)c(F)c2)nn1` (some centres undefined), for which the Kd stood at 7 nM.

`CCOC1[C@@H](Sc2cc(Cl)cnc2C(=O)N2CCC2)OC(CO)[C@H](O)[C@@H]1n1cc(-c2ccc(Cl)c(F)c2)nn1` (some centres undefined): the affinity, expressed as Kd, was 17 nM.
